Here are results for one substance from US20210379153A1, “COMBINATION THERAPIES COMPRISING SIRP ALPHA-BASED CHIMERIC PROTEINS” (Shattuck Labs, Inc., priority 2018, published 2021).

The test system of one data set is WEHI3 tumors. Briefly: WEHI3 tumor model. It is filed as in vivo, BALB/C mice. How it is done: FIG. 20C: a similar CT26 experiment was initiated as described in FIG. 20A above, however mice were pre-treated on days −1, 1, and 10 with IP injections of 100 μg of either or both CD4/CD8 depleting antibodies. Mice were inoculated with CT26 tumors on day 0 and treated at a later starting date than FIG. 20A with mSIRPα-Fc-CD40L ARC on days 7, 9, and 11. […] In FIG. 20D and FIG. 20E, BALB/C mice were inoculated with WEHI3 tumors (FIG. 20D) or A20 tumors (FIG. 20E) subcutaneously on the rear flank, and then treated via IP injection with anti-CD20 or mSIRPα-Fc-CD40L on days 7, 9, and 11 (WEHI3) or days 10, 12, and 14 (A20); when tumors were established and reached approximately 57-60 mm^3. A cohort of mice were pre-treated with an interferon alpha receptor 1 (IFNAR1) blocking antibody ([…] by IP injection) on days −1, 1, and 10 (WEHI3) or on days −1, 1, and 13 (A20). FIG. 20F to FIG. 20H are graphs showing blockade of CD4, CD8, and IFNAR1. Peripheral blood analysis by flow cytometry of CD4 (FIG. 20F), CD8 (FIG. 20G), and IFNAR1 (FIG. 20H) depletion following depleting antibody treatment corresponding to FIG. 20C to FIG. 20E. Samples were normalized to untreated animals.
In a second set of experiments, a combination of an anti-IFNAR-1 antibody and the anti-CD20 antibody, the SIRPα(CD172a)-Fc-CD40L chimeric protein in combination with the anti-IFNAR-1 antibody, and a triple combination of the SIRPα(CD172a)-Fc-CD40L chimeric protein, the anti-IFNAR-1 antibody, and the anti-CD20 antibody were tested. […] The depletion of IFNAR1+ cells was confirmed at multiple time points in the peripheral blood by flow cytometry (FIG. 20H).

For data set [1], the system named is HCC827 (high EGFR-expressing lung cancer cell line). Briefly: Macrophage engulfment of HCC827 cells. In kind it is cell-based, human. The note with it: combination with anti-EGFR antibody (cetuximab); vs low EGFR-expressing tumor cells.
The test system of another data set is tumors. Briefly: In vivo tumor model, SIRPα-Fc-OX40L with checkpoint antibodies (Example 14). On the set-up: species or system mice. How it is done: The in vivo ability of combinations of the SIRPα-Fc-OX40L chimeric protein with anti-CTLA-4 antibodies or the SIRPα-Fc-OX40L chimeric protein with anti-PD-1 antibodies to target and treat tumors was determined.

The test system of the next data set is CT26 tumor cells. Briefly: CT26 tumor model, checkpoint antibody combinations (first Example 8). In kind it is in vivo, BALB/C mice. How it is done:
In FIG. 15B, the treatments included: an anti-CTLA-4 antibody (9D9), an anti-PD-1 antibody (RMP1-14), an anti-OX40 antibody (OX86), or the SIRPα(CD172a)-Fc-CD40L chimeric protein. […] In FIG. 15D, the treatments included the SIRPα(CD172a)-Fc-CD40L chimeric protein then the anti-CTLA-4 antibody. Tumor sizes were assayed every other day until the 27th day after inoculation.

In data set [2] the target is recombinant hCD47 and recombinant hCD40 (Homo sapiens, UniProt P25942+Q08722). Briefly: Functional dual ELISA (hCD40 capture, hCD47-His detection). It is filed as binding.
Data set [3] has as its system type I interferon regulatory genes INFα1 and IFNβ1. Briefly: Type I interferon response in Raji cell:macrophage co-cultures. In kind it is cell-based, human. How it is done:
(§1) FIG. 8D: Macrophage:Toledo lymphoma co-cultures were harvested 2 hours into phagocytosis assays in the presence of rituximab ([…]), SIRPα-Fc-CD40L ([…]), or the combination of both agents. Macrophages were isolated by CD11b+ FACS, RNA was prepared, cDNA synthesized, and gene expression (IFNa1, IFNb1, CD80, and CD86) assessed by qRT-PCR. Fold change was calculated using DDCT and values obtained from the housekeeping gene ACTB, and the corresponding values from untreated samples. […] After 2 hours, co-cultures were isolated from tissue culture vessels and were stained with a fluorescently conjugated CD11b antibody to discriminate macrophages. Cells were then assessed by flow cytometry for the co-localization of fluorescent signal from both cells types. Identical assays were set up where macrophages were pre-incubated for 1 hour with 20 μg/mL of a commercially available Fc block cocktail or with 20 μg/mL of a CD40 blocking antibody or with 5 μg/mL of a calreticulin blocking peptide. FIG. 8G: RAW 264.7-Lucia ISG cells were cultured with A20 lymphoma cells in the presence of 50 mg/mL of mSIRPα-Fc-CD40L, recombinant Fc-mCD40L, mSIRPα-Fc, or their combination, 1 mg/mL anti-mCD20, or the combination of mSIRPα-Fc-CD40L and anti-mCD20. After 24-hours type I interferon induced luminescence was assessed using a luminometer. The maximum luminescence (RLU) from each experiment was set to 1, and all other samples were normalized accordingly. Values from repeat experiments are shown.

The test system of data set [4] is IRF-inducible ISG reporter in RAW264.7 cells. Briefly: RAW264.7-ISG interferon reporter cells co-cultured with A20 lymphoma cells. It is filed as cell-based, mouse. The note with it: monotherapy; 50 mg/mL proteins, 1 mg/mL anti-mCD20; 24 hours. As to the method: as §1, with “Identical assays were set up where macrophages were pre-incubated for 1 hour with 20 μg/mL of a commercially available Fc block cocktail or with 20 μg/mL of a CD40 blocking antibody or with 5 μg/mL of a calreticulin blocking peptide. FIG. 8G: RAW 264.7-Lucia ISG cells were cultured with A20 lymphoma cells in the presence of 50 mg/mL of mSIRPα-Fc-CD40L, recombinant Fc-mCD40L, mSIRPα-Fc, or their combination, 1 mg/mL anti-mCD20, or the combination of mSIRPα-Fc-CD40L and anti-mCD20.” left out, “Values from repeat experiments are shown.” left out
Additionally, a macrophage reporter system was used to detect activation. […] After 24 hours, culture supernatant was collected and assessed for luciferase activity, which would indicate activation of a type I interferon response in the RAW-ISG reporter cells. […]

Data set [5] relates to human donor red blood cells (RBCs). Briefly: In vitro hemolysis assay, human red blood cells. It is filed as cell-based. How it is done: FIG. 22B is a graph showing RBCs and test agents that were incubated at 37° C. for 24 hours and then the media was assessed at OD490 for changes in absorbance due to hemoglobin being released from lysing RBCs. […] FIG. 22D are graphs showing that peripheral blood was isolated from mice receiving three IP doses (300 μg) of the murine SIRPα-Fc-CD40L surrogate (arrows). Cell populations were assessed by flow cytometry and included CD20+ B cells, CD110+, CD4+/CD11c+, and CD8+/CD11c+ dendritic cells.
However, the in vitro systems used to test this question have significant limitations, including a complete lack of macrophages in the test system.

Where [6] appears, read: combination with anti-CD20 antibody.
The mark [7] stands for this setting: combination with anti-CTLA-4 antibody.
Setting [8] is: combination with anti-PD-1 antibody.

Take “SIRPα-Fc-CD40L: generic name of the SIRPαECD-Fc-CD40LECD chimeric protein; human or murine version according to the experiment”: the figures for the tumor size entry in the data set with WEHI3 tumors (setting [6]), in the data set on tumors (setting [7]) and in the data set with tumors (setting [8]) were “reduced tumor size greater than either component alone”, “effective in reducing tumor size” and “effective in reducing tumor size”, respectively. In addition, the tumor reduction entry in the data set on WEHI3 tumors (combination with anti-IFNAR-1 antibody vs chimeric protein alone) was “less tumor reduction”; in the data set on WEHI3 tumors (triple combination with anti-CD20 and anti-IFNAR-1 antibodies vs chimeric protein plus anti-CD20), “less tumor reduction”. In addition, the “macrophage engulfment of tumor cells” value in data set [1] was “more effective”. In the data set with tumors (combination of chimeric protein and antibody), the “rejection of primary tumor” value is given as “able to reject primary tumor”. Also, the survival entry in the data set with tumors (setting [7]) and with tumors (setting [8]) was “any survivors by the sixteenth day” in each case. The “improvement in tumor volume” value in the data set with CT26 tumor cells (chimeric protein administered after the anti-CTLA-4 antibody) is on record as “most significant improvement”. Also, the tumor volume result in the data set with CT26 tumor cells (setting [7]) is listed as “reduced tumor volume”. Also, in data set [2], the “simultaneous binding of SIRPα-domain to hCD47 and CD40L-domain to hCD40” value is reported as “simultaneous binding”. Further, the IFNβ protein synthesis result in data set [3] (setting [6]) is reported as “significantly greater”. Moreover, the “RNA expression of INFα1” value in data set [3] (combination with anti-CD20 antibody vs either component alone) is listed as “significantly greater”. Also, the “RNA expression of IFNβ1” value in data set [3] (combination with anti-CD20 antibody vs sum of alone treatments) is recorded as “greater than the sum”. Moreover, the “interferon gene-driven luciferase activity (type I IFN response)” value in data set [4] was “stimulates an increase in interferon gene-driven luciferase activity”. Also, in data set [5], the hemolysis entry is reported as “did not reveal evidence of hemolysis”.
